Reference: patent US5854010A, “Bioassay for detecting 2,3,7,8-tetrachlorodibenzo-para-dioxin and TCDD-like compounds and novel recombinant cell line useful therefor” (priority 1997, dated 1998)
pEC50: −log10 of the molar value.

Experiments:
H1L1.1 cells = assay: Dose response of luciferase induction, 24 h (FIGS. 3-6, Table 3); assay type: cell-based, mouse; settings: for Emax / pEC50: Mus musculus; for Emax / Induction of luciferase activity: mono-ortho-PCBs, FIG. 4; for Emax: vs 1 nM TCDD, read-out: Luciferase induction as % of that observed with TCDD; for Maximal luciferase expression / Relative inducing potency versus TCDD: fused-ring PAHs, FIG. 6
Procedure: The graph of FIG. 3 illustrates the dose dependence of luciferase induction in the mouse H1L1.1 cells measured following […] of the cells to increasing concentrations of TCDD or other toxic compounds (which others are discussed in more detail below).
More particularly, the stable cell clones for the mouse H1L1.1 cells (about 90% confluent) were plated into six-well microplates (purchased from Corning) and incubated for 24 hours with the indicated concentration of the particular toxin solubilized in DMSO. Then, the cells were lysed with 100 μl of lysis buffer and luciferase activity was determined as described above. Values represent the mean ± the standard evaluation of at least triplicate determinations.
As set out in Table 3, the responsiveness and sensitivity of the mouse H1L1.1 cells was compared to the responsiveness and sensitivity of certain other published PCDH cell bioassay systems. The other systems were a recombinant HepG2 (101L) cell line that induces firefly luciferase (see, Postlind et al., supra), a recombinant Hepa1 (T13) cell line that induces PAP activity (see El-Fouly et al., supra), and a rat H4IIE cell line that induces EROD activity (see, Kennedy et al., supra). The ED50 values were calculated by probit analysis of the dose-response data.
As set out in the graphs of FIGS. 3-6, since one use of the stably transfected mouse H1L1.1 cell lines is for detection and relative quantitative analysis of TCDD and various dioxin-like compounds (i.e., AhR ligands), the ability of various compounds besides TCDD to induce luciferase activity in the mouse H1L1.1 cells was examined. The experiments performed to determine the dose-response curves for the toxins other than TCDD set out in the graphs of FIGS. 3-6 were performed in essentially the same manner as the experiments described above to determine the dose response curve of TCDD set out in the graph of FIG. 3.
Specifically, with respect to the data illustrated in the graph of FIG. 3, cells were incubated with increasing concentrations of test chemical and luciferase activity determined after 24 hours.
It should be noted that the low numerical values of luciferase activity from induction by various PCBs reported in FIGS. 4 and 5, compared to the values reported in the other figures, are not due to actual low levels of luciferase induction, but to the fact that the detection of luminescence in these experiments was performed using a different instrument from that used in the other experiments.
However, the relative magnitude of luciferase induction by the mono-ortho-PCBs (FIG. 4) and the AROCLORS (FIG. 5) was established by directly comparing the resulting activity to that produced by a maximally inducing dose of TCDD (1 nM solubilized in DMSO) measured in the same instrument.

[1] = test system: guinea pig G16L1.1c8 cells; assay: Antagonism of TCDD luciferase induction by 2,2',5,5'-TCB (FIG. 7); assay type: cell-based; settings: 24 h
Procedure: (§1) The bar graph of FIG. 7 illustrates that 2,2',5,5'-TCB antagonizes induction of luciferase activity by TCDD in a species-specific manner, and thus, 2,2',5,5'-TCB is not a TCDD-like compound as defined herein. In particular, six-well plates containing the indicated cell lines were incubated with DMSO (control), with TCDD (5 nM), with 2,2',5,5'-TCB (25 μM), or with both TCDD (5 nM) and 2,2',5,5'-TCB (25 μM) for 24 hours. Luciferase activity in cell lysates was determined as described above. Values represent the mean ± the standard evaluation of at least triplicate determinations.

human HG2L1.1c3 cells = assay: as above; assay type: cell-based; settings: 24 h
Procedure: as §1

mouse H1L1.1 cells = assay: as above; assay type: cell-based
Procedure: as §1

rat H4L1.1c4 cells = assay: as above; assay type: cell-based; settings: 24 h
Procedure: as §1

mouse AhR = assay: Competitive inhibition of TCDD binding to AhR
rat AhR = assay: Competitive inhibition of TCDD binding to AhR
guinea pig AhR = assay: Competitive inhibition of TCDD binding to AhR

How did the Luciferase activation (H1L1.1 cells; up to 10 μM, 24 h, FIG. 3) turn out when `Clc1cc2c(cc1Cl)Oc1c(Cl)c(Cl)cc(Cl)c1O2` [1,2,4,7,8-PCDD, 1,2,4,7,8-pentachlorodibenzo-p-dioxin] was run?
The Luciferase activation was “no luciferase activation”.

What does the source list for `Clc1ccc(Cl)c(-c2cc(Cl)ccc2Cl)c1` [2,2',5,5'-TCB, 2,2',5,5'-tetrachlorobiphenyl]?
Effect of 2,2',5,5'-TCB alone on luciferase activity ([1]; 25 μM): no significant effect; Effect of 2,2',5,5'-TCB on TCDD luciferase induction ([1]; TCB 25 μM + TCDD 5 nM): not affected; Effect of 2,2',5,5'-TCB alone on luciferase activity (human HG2L1.1c3 cells; 25 μM): no significant effect; Effect of 2,2',5,5'-TCB on TCDD luciferase induction (human HG2L1.1c3 cells; TCB 25 μM + TCDD 5 nM): not affected; Effect of 2,2',5,5'-TCB alone on luciferase activity (mouse H1L1.1 cells; 25 μM, 24 h): no significant effect; Luminescence response of H1L1.1 cells (mouse H1L1.1 cells; 2,2',5,5'-TCB alone, in words): will not cause the novel mouse H1L1.1 cell line to respond with luminescence; Reduction of TCDD luciferase induction (mouse H1L1.1 cells; TCB 25 μM + TCDD 5 nM, 24 h): 86%; Antagonism when added with TCDD (mouse H1L1.1 cells; in words): acts as an antagonist; Effect of 2,2',5,5'-TCB alone on luciferase activity (rat H4L1.1c4 cells; 25 μM): no significant effect; Reduction of TCDD luciferase induction (rat H4L1.1c4 cells; TCB 25 μM + TCDD 5 nM): 47%; Competitive inhibition of TCDD binding (mouse AhR): competitively to inhibit TCDD binding; Competitive inhibition of TCDD binding (rat AhR): competitively to inhibit TCDD binding; Competitive inhibition of TCDD binding (guinea pig AhR): but not to the guinea pig and human AhRs

Which results are given for `Clc1ccc(-c2cc(Cl)c(Cl)c(Cl)c2Cl)cc1Cl` [2,3,3',4,4',5-HCB, 2,3,3',4,4',5-hexachlorobiphenyl]?
Emax (H1L1.1 cells; 24 h): 20 to 30%; Induction of luciferase activity (H1L1.1 cells; 24 h): 10 fold

What does the source list for `Clc1ccc(-c2cc(Cl)c(Cl)c(Cl)c2Cl)cc1` [2,3,4,4',5-PCB, 2,3,4,4',5-pentachlorobiphenyl]?
Emax (H1L1.1 cells; 24 h): 20 to 30%; Induction of luciferase activity (H1L1.1 cells; 24 h): 10 fold

What does the source list for `Clc1cc2oc3c(Cl)c(Cl)c(Cl)cc3c2cc1Cl` [2,3,4,7,8-PCDF, 2,3,4,7,8-pentachlorodibenzofuran]?
Level of luciferase induction relative to TCDD (H1L1.1 cells; 24 h, FIG. 3): comparable levels; pEC50 (H1L1.1 cells; 24 h, FIG. 3): ~8.70

With `Clc1cc2oc3cc(Cl)c(Cl)cc3c2cc1Cl` [2,3,7,8-TCDF, 2,3,7,8-tetrachlorodibenzofuran] as the molecule, how does the “Level of luciferase induction relative to TCDD” value (H1L1.1 cells; 24 h, FIG. 3) read?
Its value is “comparable levels”.

What about the pEC50 (H1L1.1 cells; 24 h, FIG. 3) of the same molecule?
The pEC50 was about 10.30.

Which results are given for `Clc1ccc(-c2cc(Cl)c(Cl)c(Cl)c2)cc1Cl` [3,3',4,4',5-PCB, 3,3',4,4',5-pentachlorobiphenyl]?
Level of luciferase induction relative to TCDD (H1L1.1 cells; 24 h, FIG. 3): comparable maximal levels; pEC50 (H1L1.1 cells; 24 h, FIG. 3): 8.70

What does the source list for `Clc1ccc(-c2ccc(Cl)c(Cl)c2)cc1Cl` [3,3',4,4'-TCB, 3,3',4,4'-tetrachlorobiphenyl]?
Level of luciferase induction relative to TCDD (H1L1.1 cells; 24 h, FIG. 3): comparable maximal levels; pEC50 (H1L1.1 cells; 24 h, FIG. 3): 7.00

Which results are given for `Cc1ccc2cc3c(ccc4ccccc43)c3c2c1CC3` [3-MC, 3-methylcholanthrene]?
Maximal luciferase expression (H1L1.1 cells): maximal luciferase expression was not reached; Relative inducing potency versus TCDD (H1L1.1 cells): substantially less potent than TCDD

Which Maximal luciferase expression (H1L1.1 cells) does the source give for `c1ccc2cc3c(ccc4ccccc43)cc2c1` [BA, benz[a]anthracene] here?
The Maximal luciferase expression was “maximal luciferase expression was not reached”.

And the “Relative inducing potency versus TCDD” value (H1L1.1 cells)?
Its value is “substantially less potent than TCDD”.

Which Maximal luciferase expression (H1L1.1 cells) does the source give for `O=c1cc(-c2ccccc2)oc2ccc3ccccc3c12` [BNF, β-naphthoflavone] here?
Its Maximal luciferase expression is “maximal luciferase expression was not reached”.

And the “Relative inducing potency versus TCDD” value (H1L1.1 cells)?
The value was “substantially less potent than TCDD”.
